# In ChEMBL document CHEMBL1201862, “PubChem BioAssay data set” (2004):
#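 Dose response: 5 concentrations. Exposure: 48 h. Format: 96-well plates. Endpoint: linear interpolation; highest concentration if not reached. The concentration for 50% growth inhibition is given as GI50.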 The source made the active and inactive calls. No stated cut-off is given here; in the data, active = GI50 up to about 1.1 µM and inactive = higher.
# Key:
# Assay in all cases: NCI tumour cell line growth inhibition, 48 h
# [1] = system: HL-60
# [2] = system: TK-10
# [3] = system: UACC-62
# [4] = system: SNB-19
# [5] = system: CAKI-1
# [6] = system: M14
# [7] = system: Malme-3M
# [8] = system: A498
# [9] = system: RPMI-8226
# [10] = system: HCT-116
# [11] = system: EKVX
# [12] = system: UACC-257
# [13] = system: U-251
# [14] = system: MOLT-4
# [15] = system: SK-MEL-5
# [16] = system: HOP-62
# [17] = system: SK-MEL-28
# [18] = system: HCT-15
# [19] = system: OVCAR-5
# [20] = system: SK-MEL-2
Structure (SMILES),GI50 [1],GI50 [2],GI50 [3],GI50 [4],GI50 [5],GI50 [6],GI50 [7],GI50 [8],GI50 [9],GI50 [10],GI50 [11],GI50 [12],GI50 [13],GI50 [14],GI50 [15],GI50 [16],GI50 [17],GI50 [18],GI50 [19],GI50 [20]
Cc1c(OC(C)C(=O)O)ccc2c(-c3ccccc3)cc(=O)oc12 (stereo unspecified),> 100 µM (inactive),> 100 µM (inactive),> 100 µM (inactive),> 100 µM (inactive),> 100 µM (inactive),> 100 µM (inactive),> 100 µM (inactive),> 100 µM (inactive),> 100 µM (inactive),> 100 µM (inactive),> 100 µM (inactive),> 100 µM (inactive),> 100 µM (inactive),> 100 µM (inactive),> 100 µM (inactive),> 100 µM (inactive),> 100 µM (inactive),–,–,–
CSc1sc(C)cc1-c1nsc(=O)o1,> 100 µM (inactive),–,> 100 µM (inactive),> 100 µM (inactive),> 100 µM (inactive),> 100 µM (inactive),> 100 µM (inactive),> 100 µM (inactive),> 100 µM (inactive),> 100 µM (inactive),> 100 µM (inactive),> 100 µM (inactive),> 100 µM (inactive),> 100 µM (inactive),> 100 µM (inactive),–,> 100 µM (inactive),> 100 µM,> 100 µM (inactive),–
NCC(Cl)C(O)c1c[nH]c(N)n1 (stereo unspecified),3.46 µM (inactive),–,3.01 µM (inactive),1.16 µM (inactive),0.269 µM (active),–,1.43 µM (inactive),0.147 µM (active),0.237 µM (active),0.392 µM (active),0.502 µM (active),3.05 µM (inactive),1.03 µM (active),0.53 µM (active),7.33 µM (inactive),0.371 µM (active),3.61 µM (inactive),3.48 µM,2.01 µM (inactive),3.56 µM (inactive)
O=C(NC(Cc1ccc(Cl)cc1)C(=O)O)c1ccc(I)cc1 (stereo unspecified),> 100 µM (inactive),–,64.9 µM (inactive),> 100 µM (inactive),> 100 µM (inactive),–,> 100 µM (inactive),> 100 µM (inactive),84.7 µM (inactive),> 100 µM (inactive),–,> 100 µM (inactive),> 100 µM (inactive),> 75.9 µM (inactive),> 100 µM (inactive),> 100 µM (inactive),> 100 µM (inactive),> 100 µM,> 100 µM (inactive),> 100 µM (inactive)
COc1cc2c(cc1OC)C1(COc3cc(O)c(O)c(O)c3C1=O)C2 (stereo unspecified),> 50 µM (inactive),> 50 µM (inactive),> 50 µM (inactive),> 50 µM (inactive),> 50 µM (inactive),> 50 µM (inactive),> 50 µM (inactive),> 50 µM (inactive),> 50 µM (inactive),> 50 µM (inactive),–,> 50 µM (inactive),> 50 µM (inactive),> 50 µM (inactive),> 50 µM (inactive),> 50 µM (inactive),> 50 µM (inactive),> 50 µM,> 50 µM (inactive),> 50 µM (inactive)
CC(O)(P(=O)(O)O)P(=O)(O)OCC(O)CN1CCOCC1 (stereo unspecified),> 100 µM (inactive),> 100 µM (inactive),> 100 µM (inactive),> 100 µM (inactive),> 100 µM (inactive),> 100 µM (inactive),> 100 µM (inactive),> 100 µM (inactive),> 100 µM (inactive),> 100 µM (inactive),> 100 µM (inactive),> 100 µM (inactive),> 100 µM (inactive),> 100 µM (inactive),–,> 100 µM (inactive),> 100 µM (inactive),> 100 µM,> 100 µM (inactive),–
C=C(C)C1Cc2c(cc(O)c3c(=O)c4ccccc4n(C)c23)O1 (stereo unspecified),39 µM (inactive),17.5 µM (inactive),–,13.9 µM (inactive),20.7 µM (inactive),28.7 µM (inactive),64.4 µM (inactive),24.3 µM (inactive),> 100 µM (inactive),69.8 µM (inactive),–,> 100 µM (inactive),56 µM (inactive),> 100 µM (inactive),27.7 µM (inactive),14.2 µM (inactive),> 100 µM (inactive),> 100 µM,> 100 µM (inactive),34.8 µM (inactive)
CN(C)CCCNC(=S)S,> 100 µM (inactive),> 100 µM (inactive),–,> 100 µM (inactive),> 100 µM (inactive),> 100 µM (inactive),> 100 µM (inactive),> 100 µM (inactive),> 100 µM (inactive),> 100 µM (inactive),> 100 µM (inactive),> 100 µM (inactive),> 100 µM (inactive),> 100 µM (inactive),> 100 µM (inactive),> 100 µM (inactive),> 100 µM (inactive),> 100 µM,> 100 µM (inactive),> 100 µM (inactive)
COC(=O)C12C3C4C1C1C2C3C41C(=O)O (stereo unspecified),> 100 µM (inactive),> 100 µM (inactive),> 100 µM (inactive),> 100 µM (inactive),> 100 µM (inactive),> 100 µM (inactive),> 100 µM (inactive),> 100 µM (inactive),> 100 µM (inactive),–,> 100 µM (inactive),> 100 µM (inactive),> 100 µM (inactive),> 100 µM (inactive),> 100 µM (inactive),> 100 µM (inactive),> 100 µM (inactive),> 100 µM,> 100 µM (inactive),–
COc1cc(C2c3cc4c(cc3[C@@H](Nc3cccc(CO)c3)C3COC(=O)[C@H]23)OCO4)cc(OC)c1O (stereo partly specified),< 0.0218 µM (active),–,0.307 µM (active),0.453 µM (active),0.205 µM (active),–,1.56 µM (inactive),0.293 µM (active),0.244 µM (active),0.624 µM (active),3.31 µM (inactive),0.173 µM (active),0.516 µM (active),0.0448 µM (active),0.56 µM (active),0.156 µM (active),2.24 µM (inactive),0.875 µM,2.04 µM (inactive),2.74 µM (inactive)
COC(=O)N[C@H](C(=O)NC(OCc1ccccc1)C1COC(C)(C)O1)C(C)O[Si](C)(C)C(C)(C)C (stereo partly specified),75.7 µM (inactive),> 100 µM (inactive),–,> 100 µM (inactive),96.2 µM (inactive),> 100 µM (inactive),> 100 µM (inactive),> 100 µM (inactive),22.4 µM (inactive),> 100 µM (inactive),> 100 µM (inactive),59.4 µM (inactive),88.7 µM (inactive),31.4 µM (inactive),26.7 µM (inactive),92.5 µM (inactive),> 100 µM (inactive),58.3 µM,> 100 µM (inactive),–
S=C=NCCc1ccccc1 [PHENETHYLISOTHIOCYANATE],0.385 µM (active),0.813 µM (active),0.839 µM (active),1.73 µM (inactive),–,0.46 µM (active),0.964 µM (active),0.431 µM (active),0.179 µM (active),0.453 µM (active),16.8 µM (inactive),0.885 µM (active),0.794 µM (active),0.53 µM (active),0.325 µM (active),0.371 µM (active),0.71 µM (active),0.228 µM,1.55 µM (inactive),0.402 µM (active)
